Values joined by “and” are separate entries in the source; they are usually repeats but may differ in a detail not shown here. Equal entries are not always repeated.
How the values were obtained:
[1] = target: T1, PPM1D1–420 (Homo sapiens, UniProt O15297); assay: p38 MAPK enzymatic assay (LC/MS, dephosphorylation of T180); assay type: biochemical; settings: PPM1D1–420; full length p38 MAPK substrate, LC/MS
T1 construct: PPM1D1–420 was PCR-amplified from the synthesized gene with BsaI sites; His(6)-SUMO (N, cleaved yes); made in house; host or cells: E. coli BL21 (DE3)
T1 sequence (O15297 1-420): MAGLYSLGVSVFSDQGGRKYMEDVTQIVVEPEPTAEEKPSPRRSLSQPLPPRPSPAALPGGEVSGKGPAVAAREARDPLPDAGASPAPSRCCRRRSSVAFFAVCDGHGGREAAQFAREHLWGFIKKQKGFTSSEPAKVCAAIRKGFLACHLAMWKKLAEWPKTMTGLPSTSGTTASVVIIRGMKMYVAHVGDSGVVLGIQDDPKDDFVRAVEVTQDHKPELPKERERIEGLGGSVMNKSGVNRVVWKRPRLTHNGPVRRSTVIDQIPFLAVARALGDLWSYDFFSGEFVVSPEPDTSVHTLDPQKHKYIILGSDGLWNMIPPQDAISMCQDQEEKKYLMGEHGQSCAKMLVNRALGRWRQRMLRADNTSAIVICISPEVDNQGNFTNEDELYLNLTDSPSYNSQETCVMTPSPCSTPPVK
Procedure: To generate the double phosphorylated form of p38 MAPK for the LC/MS enzymatic PPM1D assay, 20 µM p38 MAPK was incubated with 100 nM MKK6 in 50 mM HEPES pH 7.4, 10 mM ATP, 40 mM MgCl2, and 100 µM TCEP at RT for 2 h. The reaction mixture was diluted 2-fold with 20 mM HEPES pH 7.4, 300 mM NaCl, 100 µM TCEP, and 1 mM MgCl2 and passed over a Superdex 200 26/600 column equilibrated with 20 mM HEPES pH 7.4, 150 mM NaCl, 100 µM TCEP, and 1 mM MgCl2 to remove excess ATP and MKK6 from the phosphorylated p38 MAPK (p38PP) protein. The protein was concentrated and stored in aliquots for single time usage at −80 °C.
The enzymatic activity of the PPM1D constructs was measured by quantifying the dephosphorylation of the substrate protein p38PP by LC/MS. Assays were run in 384-well plates (Axygen; #P-384-120SQ-C) in a final volume of 80 µL per well. The buffer consisted of 20 mM HEPES, 20 mM NaCl, 20 mM MgCl2 and 0.1 mM TCEP, at a pH of 7.5. The reaction was initiated by addition of the p38PP substrate to a solution containing 10 nM PPM1D to a final concentration of 300 nM for p38PP. The plate was then incubated at room temperature and the reaction quenched after 15 min increments with formic acid to a final concentration of 6% (v/v) up to 120 min. For IC50 measurements, the GSK2830371 compound was pre-incubated with the PPM1D constructs in a 2% DMSO-containing buffer for 10 min prior to the addition of the substrate and the reactions were quenched after 2 h. In both experiments, BSA was added to a final concentration of 0.2 µM during the quench step as a carrier protein and injection control for the LC/MS. The plate was then sealed and spun down at 1500 × g for 1 min prior to LC/MS analysis. Plates were analyzed within the same day of the quench step.
Substrate and product detection was achieved by multiple-reaction monitoring (MRM) using a Waters Acquity UPLC chromatography system connected to an Xevo TQ-XS mass spectrometer (Waters, Milford, MA). Source parameters were set as follows: polarity ES+, capillary 2.0 kV, cone voltage, 50 V; collision energy, 5 V; cone gas flow, 200 L/h; collision gas flow, 0.16 mL/min; source temperature, 150 °C; desolvation temperature, 500 °C; and desolvation gas flow, 800 L/h. Analytes were separated using an Agilent PLRP-S Reversed-Phase column (5 µm; 2.1 × 50 mm, 300 Å Agilent Technologies, Santa Clara, CA) at 60 °C. Sample storage temperature was set to 15 °C. Mobile phases consisted of 0.1% (v/v) formic acid (Millipore EMSURE) in LC/MS grade water (JTBaker) and 0.1% v/v formic acid in acetonitrile (Honeywell). Initial column conditions were set to […]. Proteins were eluted using a 1.5 min gradient of 5–98% acetonitrile at 0.4 ml/min. MassLynx and TargetLynx software (Waters, version 4.2) were used for sample acquisition and data analysis, respectively. Analytes were quantified by integration of peak areas under the curve using the transitions 941.10 to 941.05 m/z for P38PP (substrate) and 939.10 to 939.09 m/z for P38P (product). Areas were normalized for instrumental variation by dividing by the BSA peak area (1209.23 to 1209.2 m/z transition) measured in the same well.

[2] = target: T1, PPM1D1–420; assay: Surface plasmon resonance (SPR); assay type: binding
Procedure: SPR was carried out on the Biacore S200 (GE Healthcare) using Series S sensor chip NTA (GE BR-1005-32). The preparation of the chip surface was conducted according to the manufacturer’s indications. The running buffer contained 50 mM Tris (pH 7.5), 50 mM NaCl, 1 mM MgCl2, 0.5 mM TCEP, 0.005% (v/v) P20 surfactant, and 2% DMSO. PPM1D1–420 and PPM1D∆Flap were run under single-cycle mode due to the slow-off-rate kinetics. The two proteins were immobilized on the chip surface in flow cells 2 and 3 with a signal of ~1500–2000 RU at a rate of 5 μL/min while flow cell 1 was left blank as a reference. The running buffer was injected three times followed by the GSK2830371 analyte in solution. Injections were carried out at a flow rate of 50 μL/min with the analyte in a concentration series of 5-point, 3-fold ending at 400 nM top dose. The association and dissociation phases were monitored for 90 s and 600 s, respectively. Collected data were evaluated using the Biacore S200 Evaluation Software under 1:1 binding mode. PPM1D∆Hinge was run under multi-cycle mode due to its fast-on/fast-off kinetics. The protein was immobilized to give a signal of ~ 3000 RU. GSK2830371 analyte in solution was injected at a flow rate of 90 μL/min in a 10-pt, 2-fold concentration series ending at 15 μM top dose. The association and dissociation phases were monitored for 45 s and 150 s, respectively. Since GSK2830371 had issues with solubility/aggregation at high concentrations that caused artifacts in sensorgrams, only steady-state analysis was performed to extract Kd.

[3] = target: T1, PPM1D1–420; assay: Isothermal titration calorimetry (ITC); assay type: binding; settings: PPM1D1–420; 25 °C
Procedure: Assessments of the analog of GSK2830371 (analog 1d) binding to wild-type and mutant proteins were conducted using an Auto-iTC200 microcalorimeter (Malvern) (see section on synthesis of analog 1d below). The protein was dialyzed extensively into 25 mM HEPES (pH 7.4), 150 mM NaCl, 10 mM MgCl2 and 1 mM TCEP. The dialyzed protein was used to prepare fresh working solutions of protein (20 µM) and analog 1d (200 µM) in 2% DMSO (v/v) in the same buffer. Titrations were performed at 25 °C and consisted of a single initial injection of 0.4 µL, followed by 19 injections of 2 µL of compound into a sample cell containing wild-type or mutant PPM1D, with an interval of 150 s between successive injections. The reference power and stirring speed were set at […] and 1000 RPM, respectively. Heat of dilution and mixing were obtained from injections of analog 1d into ITC buffer lacking protein and subtracted from the integrated data before curve fitting. Thermodynamic data were analyzed using Origin 7.0 software and fitted by non-linear regression to the model for a single binding site.

[4] = Solubility; assay type: physicochemical

- IC50 [1]: 22.4 nM
- Kd ([2]; PPM1D1–420, single-cycle kinetics for GSK2830371, read-out: Kd (SPR)): 2.7 nM
- koff ([2]; SPR kinetics fit, Sup Fig 3B, read-out: koff): 0.0015 s⁻¹
- kon ([2]; SPR kinetics fit, Sup Fig 3B, read-out: kon): 578000 M⁻¹ s⁻¹
- Steady state curve response ([2]; SPR steady state, [1d] (nM) 4.94E-09): 2.128
- Kd [3]: 10.9 nM and 10 nM
- solubility [4]: > 100 µM
Compound: NCCCCNC(=O)[C@H](CC1CCCCC1)NC(=O)c1ccc(CNc2cc(Cl)ccn2)s1 [analog 1d]

From publication PMC9246869, “Allosteric inhibition of PPM1D serine/threonine phosphatase via an altered conformational state” (Nature Communications, 2022)
